Data: the supplement of paper PMC10307832

What was measured:
Test in all cases: relative viability (nuclei count vs DMSO), 5 days (fraction); higher = more cells survive
Avagacestat = compound: NC(=O)[C@@H](CCC(F)(F)F)N(Cc1ccc(-c2ncon2)cc1F)S(=O)(=O)c1ccc(Cl)cc1 [Avagacestat]
Outline: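 Viability is treated-well nuclei as a fraction of vehicle-well nuclei, reported as the median across plates. Before counting, lung cancer cell lines were kept overnight at 37 °C in 1536-well plates, pinned with five √10-spaced library-drug doses on vehicle-anchored plates, and left 5 days without medium change, then fixed, permeabilised and Hoechst-stained in one step, imaged at 4× and counted by MetaXpress. A plate passed only if control CV was below 25% and at least one doubling occurred.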

[1] = compound: NC(=O)[C@@H](CCC(F)(F)F)N(Cc1ccc(-c2ncon2)cc1F)S(=O)(=O)c1ccc(Cl)cc1 [Avagacestat] + CC(=O)c1c(C)c2cnc(Nc3ccc(N4CCNCC4)cn3)nc2n(C2CCCC2)c1=O [Palbociclib] (partner 0.5 µM)
Outline: (§1)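 Lung cancer cell lines, seeded in 1536-well plates, were treated the following day by pin tool with a single drug or with five library-drug doses (not always all listed) in √10 steps on top of a fixed anchor-drug dose. Cells were fixed and nuclei stained in one step after 5 days, and nuclei were counted. Relative viability is the nuclei count for treated wells divided by that for vehicle wells, reported as medians of duplicate plates.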

Avagacestat + OSI-027 = compound: NC(=O)[C@@H](CCC(F)(F)F)N(Cc1ccc(-c2ncon2)cc1F)S(=O)(=O)c1ccc(Cl)cc1 [Avagacestat] + COc1cccc2cc(-c3nc([C@H]4CC[C@H](C(=O)O)CC4)n4ncnc(N)c34)[nH]c12 [OSI-027] (partner 0.5 µM)
Outline: as §1

Avagacestat + Foretinib = compound: NC(=O)[C@@H](CCC(F)(F)F)N(Cc1ccc(-c2ncon2)cc1F)S(=O)(=O)c1ccc(Cl)cc1 [Avagacestat] + COc1cc2c(Oc3ccc(NC(=O)C4(C(=O)Nc5ccc(F)cc5)CC4)cc3F)ccnc2cc1OCCCN1CCOCC1 [Foretinib] (partner 0.25 µM)
Outline: as §1

Row | Cell Line | relative viability (Avagacestat; 0.08 µM) | relative viability (Avagacestat; 0.253 µM) | relative viability (Avagacestat; 0.8 µM) | relative viability (Avagacestat; 2.53 µM) | relative viability (Avagacestat; 8 µM) | relative viability ([1]; first compound 0.08 µM) | relative viability ([1]; first compound 0.253 µM) | relative viability ([1]; first compound 0.8 µM) | relative viability ([1]; first compound 2.53 µM) | relative viability ([1]; first compound 8 µM) | relative viability (Avagacestat + OSI-027; first compound 0.08 µM) | relative viability (Avagacestat + OSI-027; first compound 0.253 µM) | relative viability (Avagacestat + OSI-027; first compound 0.8 µM) | relative viability (Avagacestat + OSI-027; first compound 2.53 µM) | relative viability (Avagacestat + OSI-027; first compound 8 µM) | relative viability (Avagacestat + Foretinib; first compound 0.08 µM) | relative viability (Avagacestat + Foretinib; first compound 0.253 µM) | relative viability (Avagacestat + Foretinib; first compound 0.8 µM) | relative viability (Avagacestat + Foretinib; first compound 2.53 µM) | relative viability (Avagacestat + Foretinib; first compound 8 µM)
1 | NCI-H661 | 1.02 | 1.2 | 1.04 | 0.85 | 1.02 | 0.415 | 0.343 | 0.428 | 0.386 | 0.419 | 0.786 | 0.775 | 0.694 | 0.704 | 0.669 | 1.04 | 1.17 | 1.07 | 0.974 | 1.08
2 | NCI-H727 | 1.06 | 0.987 | 0.948 | 1.02 | 0.837 | 0.578 | 0.577 | 0.606 | 0.684 | 0.672 | 0.675 | 0.632 | 0.92 | 0.521 | 0.517 | 0.947 | 0.932 | 0.803 | 0.783 | 0.881
3 | NCI-H838 | 1.03 | 1.11 | 1.05 | 0.894 | 0.935 | 0.221 | 0.244 | 0.226 | 0.208 | 0.215 | 0.364 | 0.466 | 0.389 | 0.398 | 0.366 | 1.1 | 1.35 | 1.07 | 1.01 | 0.944
4 | NCI-H1355 | 1.07 | 1.2 | 1.03 | 0.876 | 0.874 | 0.441 | 0.418 | 0.353 | 0.351 | 0.333 | 0.404 | 0.388 | 0.426 | 0.38 | 0.342 | 1.11 | 1.24 | 0.961 | 0.846 | 0.785
